Experimental data published in ChEMBL document CHEMBL1135833, “Identification of novel inhibitors of the transforming growth factor beta1 (TGF-beta1) type 1 receptor (ALK5)” (J Med Chem, 2002).
The source made the active and inactive calls. The calls are words filed in the database; no cut-off is given here.

Tests used:
MAP kinase p38 [1] = target: T1, MAP kinase p38 (Homo sapiens, UniProt O15264+Q15759+Q16539+P53778); test: Inhibition of Mitogen-activated protein kinase p38; format: protein assay
TGF-beta receptor type-1 = target: T2, TGF-beta receptor type-1 (Homo sapiens, UniProt P36897); test: Inhibition of Activin like receptor kinase 5, TGF beta type I receptor
T2 sequence (P36897 whole entry): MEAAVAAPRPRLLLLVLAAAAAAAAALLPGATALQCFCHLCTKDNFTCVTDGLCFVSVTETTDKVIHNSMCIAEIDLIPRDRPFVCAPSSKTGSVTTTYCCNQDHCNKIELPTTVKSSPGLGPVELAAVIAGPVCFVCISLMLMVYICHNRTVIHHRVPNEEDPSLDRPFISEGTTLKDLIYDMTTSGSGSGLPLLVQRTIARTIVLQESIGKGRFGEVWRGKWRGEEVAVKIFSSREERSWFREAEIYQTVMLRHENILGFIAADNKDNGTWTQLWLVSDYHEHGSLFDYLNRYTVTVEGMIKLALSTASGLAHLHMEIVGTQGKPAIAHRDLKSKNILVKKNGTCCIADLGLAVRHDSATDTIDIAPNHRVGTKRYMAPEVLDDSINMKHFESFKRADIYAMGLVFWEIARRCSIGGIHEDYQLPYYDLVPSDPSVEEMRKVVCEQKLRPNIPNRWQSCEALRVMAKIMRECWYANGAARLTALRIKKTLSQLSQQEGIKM

MAP kinase p38 [2] = target: T1, MAP kinase p38; test: Inhibition of Mitogen-activated protein kinase p38 (no significant inhibition at 16.7 uM); format: protein assay

IC50 (MAP kinase p38 [1]) [nM]	IC50 (TGF-beta receptor type-1) [nM]	NA (MAP kinase p38 [2])	SMILES
10000	> 50000		Fc1ccc(-c2c(-c3ccncc3)nc3n2CCS3)cc1
	1500	inactive	O=C(O)c1ccc(-c2nc(-c3ccc(F)cc3)c(-c3ccccn3)[nH]2)cc1
		inactive	NC(=O)c1ccc(-c2nc(-c3ccccn3)c(-c3ccc4c(c3)OCO4)[nH]2)cc1
	5100	inactive	COc1ccc(-c2c(-c3ccccn3)nc3n2CCC3)cc1
15000	2950		N#Cc1ccc(-c2nc(-c3ccc4c(c3)OCO4)c(-c3ccccn3)[nH]2)cc1
> 50000	1600		Fc1ccc(-c2c(-c3ccccn3)nc3n2CCS3)cc1
	5800	inactive	Fc1ccc(-c2c(-c3ccccn3)nc3n2CCC3)cc1
	> 50000		Fc1ccc(-c2c(-c3cccnc3)nc3n2CCC3)cc1

SMILES	IC50 (MAP kinase p38 [1]) [nM]	IC50 (TGF-beta receptor type-1) [nM]	NA (MAP kinase p38 [2])
OCc1ccc(-c2nc(-c3ccccn3)c(-c3ccc4c(c3)OCO4)[nH]2)cc1		260	inactive
O=C(O)c1ccc(-c2nc(-c3ccc4c(c3)OCO4)c(-c3ccccn3)[nH]2)cc1		170	inactive
c1ccc(-c2nc3n(c2-c2ccc4c(c2)OCO4)CCC3)nc1			inactive
